Test system: A549
Assay: cells
Conditions: Homo sapiens, A549, 72 h
Description: Antiproliferative activity against human A549 cells after 72 hrs by MTT assay

| SMILES | IC50 [nM] |
| --- | --- |
| CCNC(=O)c1cc(Oc2ccc(NC(=O)c3cc4cccnc4n(-c4ccc(C(F)(F)F)cc4Cl)c3=O)cc2)ccn1 | 3290 |
| CNC(=O)c1cc(Oc2ccc(NC(=O)c3cc4cccnc4n(-c4ccc(Br)cc4F)c3=O)cc2)ccn1 | 1420 |
| CCCNC(=O)c1cc(Oc2ccc(NC(=O)c3cc4cccnc4n(-c4ccccc4)c3=O)cc2)ccn1 | 95 |
| CNC(=O)c1cc(Oc2ccc(NC(=O)c3cc4cccnc4n(-c4ccc(F)c(Cl)c4)c3=O)cc2)ccn1 | 1560 |
| CNC(=O)c1cc(Oc2ccc(NC(=O)c3cc4cccnc4n(-c4ccc(Br)cc4)c3=O)cc2)ccn1 | 1050 |
| CCNC(=O)c1cc(Oc2ccc(NC(=O)c3cc4cccnc4n(-c4ccc(F)c(Cl)c4)c3=O)cc2)ccn1 | 1920 |
| CNC(=O)c1cc(Oc2ccc(NC(=O)c3cc4cccnc4n(-c4ccccc4)c3=O)cc2)ccn1 | 200 |
| CCNC(=O)c1cc(Oc2ccc(NC(=O)c3cc4cccnc4n(-c4ccc(F)cc4)c3=O)cc2)ccn1 | 120 |
| CCNC(=O)c1cc(Oc2ccc(NC(=O)c3cc4cccnc4n(-c4ccc(Br)cc4)c3=O)cc2)ccn1 | 910 |
| CCCNC(=O)c1cc(Oc2ccc(NC(=O)c3cc4cccnc4n(-c4ccccc4F)c3=O)cc2)ccn1 | 150 |
| CNC(=O)c1cc(Oc2ccc(NC(=O)c3cc4cccnc4n(-c4ccccc4F)c3=O)cc2)ccn1 | 610 |
| CNC(=O)c1cc(Oc2ccc(NC(=O)c3cc4cccnc4n(-c4ccc(C(F)(F)F)cc4Cl)c3=O)cc2)ccn1 | 2090 |
| CCCNC(=O)c1cc(Oc2ccc(NC(=O)c3cc4cccnc4n(-c4ccc(Cl)cc4)c3=O)cc2)ccn1 | 120 |
| CCNC(=O)c1cc(Oc2ccc(NC(=O)c3cc4cccnc4n(-c4ccc(Cl)cc4)c3=O)cc2)ccn1 | 250 |

Test system: NCI-H460
Assay: Antiproliferative activity against human H460 cells after 72 hrs by MTT assay
Type: functional, cell-based
Conditions: NCI-H460, 72 h

| SMILES | IC50 [nM] |
| --- | --- |
| CCCNC(=O)c1cc(Oc2ccc(NC(=O)c3cc4cccnc4n(-c4ccccc4)c3=O)cc2)ccn1 | 110 |
| CNC(=O)c1cc(Oc2ccc(NC(=O)c3cc4cccnc4n(-c4ccc(Br)cc4)c3=O)cc2)ccn1 | 3710 |
| CNC(=O)c1cc(Oc2ccc(NC(=O)c3cc4cccnc4n(-c4ccccc4)c3=O)cc2)ccn1 | 320 |
| CCNC(=O)c1cc(Oc2ccc(NC(=O)c3cc4cccnc4n(-c4ccc(F)cc4)c3=O)cc2)ccn1 | 220 |
| CCCNC(=O)c1cc(Oc2ccc(NC(=O)c3cc4cccnc4n(-c4ccccc4F)c3=O)cc2)ccn1 | 390 |
| CNC(=O)c1cc(Oc2ccc(NC(=O)c3cc4cccnc4n(-c4ccccc4F)c3=O)cc2)ccn1 | 590 |
| CNC(=O)c1cc(Oc2ccc(NC(=O)c3cc4cccnc4n(-c4ccc(C(F)(F)F)cc4Cl)c3=O)cc2)ccn1 | 2110 |

Test system: HT-29
Assay: cells
Conditions: Homo sapiens, HT-29, 72 h

| SMILES | IC50 [nM] |
| --- | --- |
| CCNC(=O)c1cc(Oc2ccc(NC(=O)c3cc4cccnc4n(-c4ccc(C(F)(F)F)cc4Cl)c3=O)cc2)ccn1 | 4770 |
| CNC(=O)c1cc(Oc2ccc(NC(=O)c3cc4cccnc4n(-c4ccc(Br)cc4F)c3=O)cc2)ccn1 | 1950 |
| CCCNC(=O)c1cc(Oc2ccc(NC(=O)c3cc4cccnc4n(-c4ccccc4)c3=O)cc2)ccn1 | 98 |
| CNC(=O)c1cc(Oc2ccc(NC(=O)c3cc4cccnc4n(-c4ccc(F)c(Cl)c4)c3=O)cc2)ccn1 | 1810 |
| CNC(=O)c1cc(Oc2ccc(NC(=O)c3cc4cccnc4n(-c4ccc(Br)cc4)c3=O)cc2)ccn1 | 1180 |
| CCNC(=O)c1cc(Oc2ccc(NC(=O)c3cc4cccnc4n(-c4ccc(F)c(Cl)c4)c3=O)cc2)ccn1 | 2600 |
| CNC(=O)c1cc(Oc2ccc(NC(=O)c3cc4cccnc4n(-c4ccccc4)c3=O)cc2)ccn1 | 250 |
| CCNC(=O)c1cc(Oc2ccc(NC(=O)c3cc4cccnc4n(-c4ccc(F)cc4)c3=O)cc2)ccn1 | 190 |
| CCNC(=O)c1cc(Oc2ccc(NC(=O)c3cc4cccnc4n(-c4ccc(Br)cc4)c3=O)cc2)ccn1 | 1160 |
| CCCNC(=O)c1cc(Oc2ccc(NC(=O)c3cc4cccnc4n(-c4ccccc4F)c3=O)cc2)ccn1 | 200 |
| CNC(=O)c1cc(Oc2ccc(NC(=O)c3cc4cccnc4n(-c4ccccc4F)c3=O)cc2)ccn1 | 260 |
| CNC(=O)c1cc(Oc2ccc(NC(=O)c3cc4cccnc4n(-c4ccc(C(F)(F)F)cc4Cl)c3=O)cc2)ccn1 | 3190 |
| CCCNC(=O)c1cc(Oc2ccc(NC(=O)c3cc4cccnc4n(-c4ccc(Cl)cc4)c3=O)cc2)ccn1 | 390 |
| CCNC(=O)c1cc(Oc2ccc(NC(=O)c3cc4cccnc4n(-c4ccc(Cl)cc4)c3=O)cc2)ccn1 | 330 |

Test system: U-87 MG
Assay: Antiproliferative activity against human U87MG cells after 72 hrs by MTT assay
Type: functional, cell-based, U-87MG ATCC
Conditions: not given

| SMILES | IC50 [nM] |
| --- | --- |
| CCCNC(=O)c1cc(Oc2ccc(NC(=O)c3cc4cccnc4n(-c4ccccc4)c3=O)cc2)ccn1 | 1510 |
| CNC(=O)c1cc(Oc2ccc(NC(=O)c3cc4cccnc4n(-c4ccc(Br)cc4)c3=O)cc2)ccn1 | 15000 |
| CNC(=O)c1cc(Oc2ccc(NC(=O)c3cc4cccnc4n(-c4ccccc4)c3=O)cc2)ccn1 | 1820 |
| CCNC(=O)c1cc(Oc2ccc(NC(=O)c3cc4cccnc4n(-c4ccc(F)cc4)c3=O)cc2)ccn1 | 1130 |
| CCCNC(=O)c1cc(Oc2ccc(NC(=O)c3cc4cccnc4n(-c4ccccc4F)c3=O)cc2)ccn1 | 2320 |
| CNC(=O)c1cc(Oc2ccc(NC(=O)c3cc4cccnc4n(-c4ccccc4F)c3=O)cc2)ccn1 | 3360 |
| CNC(=O)c1cc(Oc2ccc(NC(=O)c3cc4cccnc4n(-c4ccc(C(F)(F)F)cc4Cl)c3=O)cc2)ccn1 | 19800 |

Reference: ChEMBL document CHEMBL4184123, “Discovery of novel 2-substituted-4-phenoxypyridine derivatives as potential antitumor agents” (Bioorg Med Chem Lett, 2018)
